Consider one compound from patent US9980942B2, “Rejuvenation of precursor cells” (Children's Hospital Medical Center, priority 2012, dated 2018).

Entries after “also recorded” stand apart in the source; their conditions may differ.

The subject of one experiment is skin epithelium. Kind of experiment: In vivo rejuvenation of skin epithelium (immunohistochemistry, skin thickness). The arrangement: species or system mice. As to the method: To test the extent to which CASIN rejuvenates skin and intestinal epithelium in vivo, aged (22-24 month old B1 6) and young (10-12 week old B1 6) mice were injected with CASIN twice daily (2.4 mg/Kg in PBS and 15% EtOH). A group of control mice in each age group were not given the drug. The injections were given 6 hours apart for 5 days. After 28 days, the mice were sacrificed and skin and intestinal samples were processed for immunohistochemistry.
To further assess the effects of in vivo administration of CASIN on aging parameters in the skin, aged mice were treated with CASIN as described in Example 5. The treated and untreated aged and young mice were then tested for skin thickness.

In experiment [1] the test system is aged LT-HSCs. As to the kind of experiment: Competitive serial LT-HSC transplantation after ex vivo CASIN treatment. In kind it is in vivo, mouse. As to the method:
For competitive LT-HSC transplantation, young (2-4-month-old) and aged (20-26-month-old) C57BL/6 mice (Ly5.2^+) were used as donors. 200 LT-HSCs were sorted into 96 multi-well plates and cultured (either in suspension or adherent to fibronectin) for 16 hrs in HBSS+10% FBS±CASIN (5 μM) in a water jacketed incubator at 37° C., 5% CO2, 3% O2. Stem cells were then mixed with 3×10^5 BM cells from young (2-4-month-old) BoyJ competitor mice (Ly5.1^+) and then transplanted into BoyJ recipient mice (Ly5.1^+).
Peripheral blood (PB) chimerism was determined by FACS analysis every 8 weeks. 24 weeks post primary transplants, 2×10^6 BM cells from an individual primary recipient mouse were injected into an individual secondary pre-conditioned recipient BoyJ mouse. Experiment was performed three times with LT-HSCs cultured in suspension and two times with LTHSCs cultured on a fibronectin-coated substrate without any difference in experimental outcome. Primary transplanted mice were regarded engrafted when PB chimerism was higher or equal to 1.0% and contribution was detected in all lineages. Secondary transplanted mice were regarded as engrafted when PB chimerism was higher or equal to 0.5% and contribution was detected in all lineages.
PB and BM cell immunostaining was performed according to standard procedures and samples were analyzed on a LSRII flow cytometer (BD Biosciences). Lineage FACS analysis data are plotted as the percentage of B220+, CD3+ and Myeloid (Gr-1+, Mac-1+ and Gr-1+Mac-1+) cells among donor-derived Ly5.2^+ cells. As for early hematopoiesis analysis, mononuclear cells were isolated by low-density centrifugation (Histopaque 1083, Sigma) and stained with a cocktail of biotinylated lineage antibodies. After lineage depletion by magnetic separation (Dynalbeads, Invitrogen), cells were stained with anti-Sca-1 (clone D7) (eBioscience), anti-c-kit (clone 2B8) (eBioscience), anti-CD34 (clone RAM34) (eBioscience), anti-CD127 (clone A7R34) (eBioscience), anti-Flk-2 (clone A2F10) (eBioscience) and Streptavidin (eBioscience). Early hematopoiesis FACS analysis data were plotted as percentage of long-term hematopoietic stem cells (LTHSCs, gated as LSK CD34−/lowFlk2−), short-term hematopoietic stem cells (ST-HSCs, gated as LSK CD34+Flk2−) and lymphoid-primed multipotent progenitors (LMPPs, gated as LSK CD34+Flk2+) (Adolfsson et al., 2005) distribution among donor-derived LSKs (Linnegc-kit+sca-1+ cells). LSK and common lymphoid progenitor cells (CLP, gated as Lin−c-Kit−/low Sca-1−/low IL7Rα+) (Karsunky et al., 2008) were plotted as percentage among donor-derived Linneg cells. In order to isolate LT-HSCs, lineage depletion was performed to enrich for lineage negative cells. Lineage negative cells were then stained as aforementioned and sorted using a BD FACS Aria I or a BD FACS Aria III (BD Bioscience).

The subject of experiment [2] is aged LT-HSCs. As to the kind of experiment: Immunofluorescence polarity scoring of Cdc42 and tubulin. In kind it is cell-based, mouse. As to the method:
Freshly sorted LT-HSCs were seeded on fibronectin-coated glass coverslips in HBSS+10% FBS. CASIN (referred to in (Peterson et al., 2006) as Pirl1-related compound 2) was obtained from Chembridge Corporation, and purified to greater than 99% by high-performance liquid chromatography. After 16 hours of incubation at 37° C., 5% CO2, 3% O2, cells were fixed with BD Cytofix Fixation Buffer (BD Biosciences).
After fixation cells were gently washed with PBS, permeabilized with 0.2% Tryton X-100 (Sigma) in PBS for 20 minutes and blocked with 10% Donkey Serum (Sigma) for 30 minutes. Primary and secondary antibodies incubations were performed for 1 hr at room temperature. […] The cells were coimmunostained with an anti-alpha tubulin antibody (Abcam, rat monoclonal ab6160) detected with an anti-rat AMCA-conjugated secondary antibody or an anti-rat DyLight 488-conjugated antibody (Jackson ImmunoResearch), an anti-Cdc42 antibody (Millipore, rabbit polyclonal) detected with an anti-rabbit DyLight 549-conjugated antibody (Jackson ImmunoResearch) and an anti-Pericentrin-2 antibody (Santa Cruz Biotechnology, goat polyclonal) detected with an anti-goat MCAconjugated antibody (Jackson ImmunoResearch). […] Images were analyzed with AxioVision 4.6 software. Alternatively, samples were analyzed with an LSM710 confocal microscope (Zeiss) equipped with a 63X objective. […]

Experiment [3] has as its system aged LT-HSCs. Kind of experiment: Apoptosis and cell cycle staining (Hoechst/Pyronin Y, Annexin V). In kind it is cell-based, mouse. The following applies: 5 μM CASIN, 16 hrs. The procedure:
Hoechst/PY staining was performed as previously described (Passegue et al., 2005). Briefly, 25,000 FACS-sorted LT-HSCs were incubated for 16 hrs in HBSS+10% FBS±CASIN (5 μM) in a water jacketed incubator at 37° C., 5% CO2, 3% O2. Then HOECHST 33342 (Invitrogen) was added directly to the medium at a final concentration of 20 μg/ml and samples were kept in incubation at 37° C., 5% CO2, 3% O2 for 45 min. PironinY (Sigma-Aldrich) was then added at a concentration of 1 μg/ml, and cells were incubated for additional 15 minutes. Cells were resuspended and incubated with anti-Annexin V (BD Pharmingen) according to manufacturer's instruction, washed and immediately analyzed on a LSRII (BD Biosciences).

As to `OCCNC1CCCc2c1[nH]c1ccc(-c3ccccc3)cc21` (stereo not drawn) [CASIN], in the experiment on skin epithelium (aged mice treated as in Example 5), the skin thickness result is given as “approximately equal to that of young mice”. Further, the “number and density of hair follicles” value in the experiment on skin epithelium (aged mice, 2.4 mg/Kg twice daily for 5 days, after 28 days, vs untreated aged mice) is reported as “marked improvement”. In the experiment on aged LT-HSCs [1] (primary recipients), the “contribution to the B-cell compartment in PB” value is “increase”, the “contribution to the myeloid lineage” value is on record as “reduced” and the “frequency of donor-derived LT-HSCs among donor-derived LSKs” value was “significantly reduced”. Moreover, in the experiment on aged LT-HSCs [1] (secondary transplant), the “B-cell and myeloid engraftment in PB and BM” value is recorded as “indistinguishable from young LT-HSCs”; the “contribution to the LT-HSC pool in BM” value is on record as “indistinguishable from young LT-HSCs”. In the experiment with aged LT-HSCs [1] (secondary transplant, compared to aged LT-HSCs), the “overall regenerative capacity (chimerism in PB)” value is “increased and stable chimerism in PB”. Moreover, the “time the increase in percentage of polar cells remained stable after CASIN withdrawal” value with aged LT-HSCs [2] (aged LT-HSCs in vitro) was at least 6 h. In addition, in the experiment with aged LT-HSCs [2] (aged LT-HSCs, 2.5 and 5 μM CASIN), the “percentage of polarized cells (Cdc42 and tubulin)” value was “dose-dependent increase”. Further, in the experiment on aged LT-HSCs [3], the apoptosis entry is listed as “did not alter; also recorded: doesn't alter” and the cell cycle status entry was “did not alter; also recorded: doesn't alter”.
